Assay results reported in patent US5622962A, “5α-reductase inhibitors” (priority 1995, dated 1997).

Assays:
[1] = target: T1, Type I 5α-Reductase from Human Scalp (Homo sapiens, UniProt P18405); assay: Human Type I 5α-reductase assay (conversion of [3H]-testosterone to 5α-reduced metabolites); type: biochemical; details: pH 7.5, 0.3 μM; 50 nM [3H]-testosterone, pH 7.5, 25°, 180 min; compared to control reaction mixtures; read-out: percent inhibition of Type I AR
T1 construct: Scalp punch biopsies from graft recipient sites were obtained from human hair transplant procedures; from tissue; host or cells: human scalp punch biopsies (hair transplant graft recipient sites), homogenate, 100,000×g pellet
T1 sequence (P18405 1-259): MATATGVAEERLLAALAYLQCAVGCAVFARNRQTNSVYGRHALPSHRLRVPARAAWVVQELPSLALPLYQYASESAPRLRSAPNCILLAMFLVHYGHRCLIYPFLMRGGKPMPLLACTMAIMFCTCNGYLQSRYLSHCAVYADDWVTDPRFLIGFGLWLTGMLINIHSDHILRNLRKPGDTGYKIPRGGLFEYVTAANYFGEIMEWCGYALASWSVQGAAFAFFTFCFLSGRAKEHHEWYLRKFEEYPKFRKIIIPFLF

[2] = target: T2, Type II 5α-Reductase from Human Prostate (Homo sapiens, UniProt P31213); assay: Human Type II 5α-reductase assay (conversion of [3H]-testosterone to 5α-reduced metabolites); type: biochemical; details: pH 5.5, 0.3 μM; sodium acetate pH 5.5, 25°, 30 min; compared to control reaction mixtures; read-out: percent inhibition of Type II AR
T2 construct: The same procedure as above was used for preparations using tissue from prostate surgery; from tissue; host or cells: human prostate tissue from surgery, homogenate, 100,000×g pellet
T2 sequence (P31213 1-254): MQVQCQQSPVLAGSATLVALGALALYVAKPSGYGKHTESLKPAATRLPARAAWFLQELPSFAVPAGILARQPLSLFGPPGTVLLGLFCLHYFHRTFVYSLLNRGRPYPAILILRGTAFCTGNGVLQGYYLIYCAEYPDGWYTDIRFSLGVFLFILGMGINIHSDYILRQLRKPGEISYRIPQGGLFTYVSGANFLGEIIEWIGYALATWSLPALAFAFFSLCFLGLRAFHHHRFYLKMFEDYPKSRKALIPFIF

Compound	inhibition at 0.3 µM [1]	inhibition at 0.3 µM [2]
CN1C(=O)CC[C@]2(C)c3ccc(-c4ccncc4)cc3CC[C@@H]12 [Example 235, (+)-(4aR)-(10bR)-4-methyl-8-(4-pyridinyl)-10b-methyl-1,2,3,4,4a,5,6,10b-octahydrobenzo[f]quinolin-3-one]	28%	12%
Cc1ccc(S(=O)(=O)n2ccc3cc(-c4ccc5c(c4)CC[C@H]4N(C)C(=O)CC[C@]54C)ccc32)cc1 [Example 236, (+)-(4aR)-(10bR)-4-methyl-8-(1-p-toluenesulfonylindol-5-yl)-10b-methyl-1,2,3,4,4a,5,6,10b-octahydrobenzo[f]quinolin-3-one]	84%	67%
CC(=O)N1CCc2cc(-c3ccc4c(c3)CC[C@H]3N(C)C(=O)CC[C@]43C)cc([N+](=O)[O-])c21 [Example 237, (+)-(4aR)-(10bR)-4-methyl-8-(1-acetyl-7-nitroindolin-5-yl)-10b-methyl-1,2,3,4,4a,5,6,10b-octahydrobenzo[f]quinolin-3-one]	33%	13%
CC(=O)N1CCc2cc(-c3ccc4c(c3)CC[C@H]3N(C)C(=O)CC[C@]43C)ccc21 [Example 238, (+)-(4aR)-(10bR)-4-methyl-8-(1-acetylindolin-5-yl)-10b-methyl-1,2,3,4,4a,5,6,10b-octahydrobenzo[f]quinolin-3-one]	72%	29%
CN1C(=O)CC[C@]2(C)c3ccc(-c4cccc5cccnc45)cc3CC[C@@H]12 [Example 239, (+)-(4aR)-(10bR)-4-methyl-8-(8-quinolinyl)-10b-methyl-1,2,3,4,4a,5,6,10b-octahydrobenzo[f]quinolin-3-one]	42%	27%
CN1C(=O)CC[C@]2(C)c3ccc(-c4cccc5ncccc45)cc3CC[C@@H]12 [Example 240, (+)-(4aR)-(10bR)-4-methyl-8-(5-quinolinyl)-10b-methyl-1,2,3,4,4a,5,6,10b-octahydrobenzo[f]quinolin-3-one]	55%	17%
CN1C(=O)CC[C@]2(C)c3ccc(-c4cccc5cnccc45)cc3CC[C@@H]12 [Example 241, (+)-(4aR)-(10bR)-4-methyl-8-(5-isoquinolinyl)-10b-methyl-1,2,3,4,4a,5,6,10b-octahydrobenzo[f]quinolin-3-one]	65%	33%
CN1C(=O)CC[C@]2(C)c3ccc(-c4ccccn4)cc3CC[C@@H]12 [Example 242, (+)-(4aR)-(10bR)-4-methyl-8-(2-pyridinyl)-10b-methyl-1,2,3,4,4a,5,6,10b-octahydrobenzo[f]quinolin-3-one]	5%	24%
CN1C(=O)CC[C@]2(C)c3ccc(-c4cc(F)c([N+](=O)[O-])cc4F)cc3CC[C@@H]12 [Example 243, (+)-(4aR)-(10bR)-4-methyl-8-(2,5-difluoro-4-nitrophenyl)-10b-methyl-1,2,3,4,4a,5,6,10b-octahydrobenzo[f]quinolin-3-one]	88%	54%
CN1C(=O)CC[C@]2(C)c3ccc(-c4ccc5ncccc5c4)cc3CC[C@@H]12 [Example 244, (+)-(4aR)-(10bR)-4-methyl-8-(6-quinolinyl)-10b-methyl-1,2,3,4,4a,5,6,10b-octahydrobenzo[f]quinolin-3-one]	51%	32%
CN1C(=O)CC[C@]2(C)c3ccc(-c4ccc5c6c(cccc46)C(=O)N(C4CCN(Cc6ccccc6)CC4)C5=O)cc3CC[C@@H]12 [Example 246, (+)-(4aR)-(10bR)-4-methyl-8-[2-(4-[N-benzyl]piperidinyl)-1H-benzo<de>isoquinolin-6-yl-1,3-(2H)dione]-10b-methyl-1,2,3,4,4a,5,6,10b-octahydrobenzo[f]quinolin-3-one]	92%	45%
CN1C(=O)CC[C@]2(C)c3ccc(-c4ccc5ccccc5n4)cc3CC[C@@H]12 [Example 247, (+)-(4aR)-(10bR)-4-methyl-8-(2-quinolinyl)-10b-methyl-1,2,3,4,4a,5,6,10b-octahydrobenzo[f]quinolin-3-one]	60%	32%
CN1C(=O)CC[C@]2(C)c3ccc(-c4ccc5oc(=O)ccc5c4)cc3CC[C@@H]12 [Example 248, (+)-(4aR)-(10bR)-4-methyl-8-(2-oxo-1-benzopyran-6-yl)-10b-methyl-1,2,3,4,4a,5,6,10b-octahydrobenzo[f]quinolin-3-one]	54%	22%
CN1C(=O)CC[C@]2(C)c3ccc(-c4ccc5ncsc5c4)cc3CC[C@@H]12 [Example 249, (+)-(4aR)-(10bR)-4-methyl-8-(6-benzothiazolyl)-10b-methyl-1,2,3,4,4a,5,6,10b-octahydrobenzo[f]quinolin-3-one]	69%	24%
CN1C(=O)CC[C@]2(C)c3ccc(-c4ccc5c(ccn5C(=O)OC(C)(C)C)c4)cc3CC[C@@H]12 [Example 250, (+)-(4aR)-(10bR)-4-methyl-8-(1-[t-butoxycarbonyl]-5-indolyl)-10b-methyl-1,2,3,4,4a,5,6,10b-octahydrobenzo[f]quinolin-3-one]	83%	1%
CN1C(=O)CC[C@]2(C)c3ccc(-c4nc5ccccc5o4)cc3CC[C@@H]12 [Example 251, (+)-(4aR)-(10bR)-4-methyl-8-(2-benzoxazolyl)-10b-methyl-1,2,3,4,4a,5,6,10b-octahydrobenzo[f]quinolin-3-one]	69%	36%
CN1C(=O)CC[C@]2(C)c3ccc(-c4nc5ccccc5s4)cc3CC[C@@H]12 [Example 252, (+)-(4aR)-(10bR)-4-methyl-8-(2-benzothiazolyl)-10b-methyl-1,2,3,4,4a,5,6,10b-octahydrobenzo[f]quinolin-3-one]	89%	54%
CN1C(=O)CC[C@]2(C)c3ccc(-c4cnccn4)cc3CC[C@@H]12 [Example 253, (+)-(4aR)-(10bR)-4-methyl-8-(2-pyrazinyl)-10b-methyl-1,2,3,4,4a,5,6,10b-octahydrobenzo[f]quinolin-3-one]	5%	32%
CN1C(=O)CC[C@]2(C)c3ccc(-c4ncccn4)cc3CC[C@@H]12 [Example 254, (+)-(4aR)-(10bR)-4-methyl-8-(2-pyrimidinyl)-10b-methyl-1,2,3,4,4a,5,6,10b-octahydrobenzo[f]quinolin-3-one]	37%	28%
CN1C(=O)CC[C@]2(C)c3ccc(-c4cnc5ccccc5n4)cc3CC[C@@H]12 [Example 255, (+)-(4aR)-(10bR)-4-methyl-8-(2-quinoxalinyl)-10b-methyl-1,2,3,4,4a,5,6,10b-octahydrobenzo[f]quinolin-3-one]	71%	37%
CN1C(=O)CC[C@]2(C)c3ccc(-c4nc5ccccc5[nH]4)cc3CC[C@@H]12 [Example 256, (+)-(4aR)-(10bR)-4-methyl-8-(2-benzimidazolyl)-10b-methyl-1,2,3,4,4a,5,6,10b-octahydrobenzo[f]quinolin-3-one]	38%	18%
CN1C(=O)CC[C@]2(C)c3ccc(-c4n[nH]c5ccccc45)cc3CC[C@@H]12 [Example 257, (+)-(4aR)-(10bR)-4-methyl-8-(3-indazolyl)-10b-methyl-1,2,3,4,4a,5,6,10b-octahydrobenzo[f]quinolin-3-one]	36%	58%
CN1C(=O)CC[C@]2(C)c3ccc(-c4nnnn4-c4ccccc4)cc3CC[C@@H]12 [Example 258, (+)-(4aR)-(10bR)-4-methyl-8-(2-[3-phenyl]tetrazolyl)-10b-methyl-1,2,3,4,4a,5,6,10b-octahydrobenzo[f]quinolin-3-one]	27%	16%
CN1C(=O)CC[C@]2(C)c3ccc(-c4ccc(C(F)(F)F)cn4)cc3CC[C@@H]12 [Example 259, (+)-(4aR)-(10bR)-4-methyl-8-(2-[5-trifluoromethyl]pyridinyl)-10b-methyl-1,2,3,4,4a,5,6,10b-octahydrobenzo[f]quinolin-3-one]	31%	14%
CN1C(=O)CC[C@]2(C)c3ccc(-c4nc5c(ccc6ccccc65)s4)cc3CC[C@@H]12 [Example 260, (+)-(4aR)-(10bR)-4-methyl-8-(2-naphtho<1,2-d>thiazolyl)-10b-methyl-1,2,3,4,4a,5,6,10b-octahydrobenzo[f]quinolin-3-one]	84%	40%
CN1C(=O)CC[C@]2(C)c3ccc(-c4nc5c(F)cccc5s4)cc3CC[C@@H]12 [Example 261, (+)-(4aR)-(10bR)-4-methyl-8-(2-[4-fluoro]benzothiazolyl)-10b-methyl-1,2,3,4,4a,5,6,10b-octahydrobenzo[f]quinolin-3-one]	86%	49%
